According to patent US20210038730A1, “PEPTIDE NANOFIBERS” (UNIVERSITY OF PORTSMOUTH HIGHER EDUCATION CORPORATION, priority 2018, published 2021):

Tests used:
[1] = system: SK-OV-3 cells; assay: Cell uptake of TR-TPGnRH, SK-OV-3; format: cell-based, human
Procedure: (§1) The U-87 MG and SK-OV-3 cells were seeded at 20,000 cells/cm^2 in a 12-well plate (76,000 cells per well). Cells were allowed to attach overnight, and then the media was replaced by fresh media (900 μL) containing TR-TPGnRH (50 μg mL^−1 in PBS, 100 μL, pH 7.4). Subsequently, cells were either incubated at 4 or 37° C. for 1 and 4 hours. At the end of each time-point, cells were washed with HBSS twice to wash the free fibres, incubated with 500 μL TrypLE Enzyme at 37° C. for 3 minutes, and then collected by centrifugation at 1,000 rpm for 5 minutes using a C-28A centrifuge. Cells were then re-suspended in PBS (200 μL) and analysed in BD FACSCalibur™ flow cytometer acquiring at least 10,000 events. Unstained cells were used as a control in the flow cytometry settings.

[2] = system: hCMEC/D3 endothelial cells; assay: Cell uptake in endothelial cells (flow cytometry); format: cell-based, human; conditions: 4 hours of incubation, 50 μg mL^−1
Procedure: TPGnRH was labelled with Texas Red (TR) according to the manufacturer's protocol. Endothelial cells were seeded (227,000 cells/cm^2) in 24-well plates, allowed to attach for 24 hours, and then media was replaced by fresh media containing TR-TPGnRH at 50 μg mL^−1 in PBS. Cells were either incubated at 4 or 37° C. for 1 and 4 hours. At the end of a time-point, cells were washed with HBSS to remove the free nanofibers, incubated with 500 μL of TrypLE Express Enzyme and collected by centrifugation. The cell pellet was then re-suspended in PBS, and cells were analysed in BD FACS Calibur™ flow cytometer (BD Biosciences, Wiltshire, UK) acquiring at least 10,000 events. Data were analysed in FlowJo® Software 10.1. Unstained cells were used as a control in the flow cytometry settings.

[3] = Permeability across in vitro blood-brain barrier model
Procedure: (§2) In order to test the permeability of TPGnRH nanofibers across the blood-brain barrier (BBB), a static contact co-culture was set up according to a previous method^7. Briefly, human astrocytes (SC-1800, 25,000 cells/well) were seeded on the abluminal side of a 24-well plate Transwell polycarbonate membrane (3 μm of a pore size, Corning Star, Deeside, UK) coated with human fibronectin. Cells were allowed to attach for 3 days, and then human brain microvascular endothelial cells (hCMEC/D3, 75,000 cells/well) were seeded on the luminal side of the Transwell and co-cultured with astrocytes for five days with a daily change of the media. Transendothelial resistance was measured using EVOM voltohmmeter (World Precision Instruments, Berlin, Germany).
(§3) Transwells were washed with HBSS and immersed into HBSS (600 μL in abluminal side). […] Samples (100 μL) were collected from the abluminal side at specific time-points, and fresh HBSS (100 μL) was used to replace the volume from the abluminal compartments. […] PAX was analysed using reverse phase-HPLC with the gradient method described on Table 2. TR-TPGnRH was quantified in POLARstar Omega plate reader spectrophotometer with λexc 596 and λem 615 nm. The permeability coefficient (Papp) was determined using the equation: […]
(§4) ΔQr, is the flux of drug along time (μg mL^−1), Vr is the volume of the abluminal side (mL), A is the area of the Transwell membrane, C0 is the concentration of drug in the luminal side, and 60, the converser factor from minutes to seconds^8.

[4] = system: U-87 MG cells; assay: Cell uptake of TR-TPGnRH, U-87 MG; format: cell-based, human
Procedure: as §1

[5] = system: in vitro BBB model (hCMEC/D3 and SC-1800 co-culture); assay: in vitro
Procedure: as §2, §3, §4

Papp [5] | Compound | Cell uptake ([1]; SK-OV-3, 1 Hour, 4° C.) | Cell uptake ([1]; SK-OV-3, 1 Hour, 37° C.) | Cell uptake ([1]; SK-OV-3, 4 Hours, 4° C.) | Cell uptake ([1]; SK-OV-3, 4 Hours, 37° C.) | TR-TPGnRH+ cells ([2]; 4° C.) | TR-TPGnRH+ cells ([2]; 37° C.) | Papp A→B [3] | Cell uptake ([4]; 1 Hour, 4° C.) | Cell uptake ([4]; 1 Hour, 37° C.) | Cell uptake ([4]; 4 Hours, 4° C.) | Cell uptake ([4]; 4 Hours, 37° C.)
– | CCCCCCCCCCCCCCCC(=O)Oc1ccc(C[C@H](NC(=O)[C@H](CO)NC(=O)[C@H](Cc2c[nH]c3ccccc23)NC(=O)[C@H](Cc2c[nH]cn2)NC(=O)[C@H](CCC(=O)O)NS(=O)(=O)c2ccc(-c3c4cc5c6c(c4[o+]c4c7c8c(cc34)CCCN8CCC7)CCCN6CCC5)c(S(=O)(=O)[O-])c2)C(=O)NCC(=O)N[C@@H](CC(C)C)C(=O)N[C@@H](CCCNC(=N)N)C(=O)N2CCC[C@H]2C(=O)NCC(N)=O)cc1 [Texas Red-TPGnRH] | 10.02 ± 0.52 | 13.35 ± 0.53 | 52.47 ± 3.34 | 49.36 ± 4.66 | 0.18±0.05% | 68.43±0.85% | 6 ×10⁻⁶ cm/s | 20.51 ± 3.10 | 32.64 ± 5.04 | 52.36 ± 10.20 | 91.12 ± 1.11
111.78 ± 24.30 ×10^−6 cm s^−1 | Texas Red [Free Texas Red] | – | – | – | – | – | – | – | – | – | – | –
